This test can be described thus: Displacement of [3H]DTG from sigma opioid receptor of homogenized guinea pig whole brain.
In turn, `COc1ccccc1N=C(N)NC12CC3CC(CC(C3)C1)C2` returned an IC50 of 17 nM.
With `Cc1cc(F)ccc1N=C(N)NC12CC3CC(CC(C3)C1)C2` the figure was 3.2 nM; with `COc1cccc(NC(N)=NC23CC4CC(CC(C4)C2)C3)c1`, 7 nM; with `COc1ccc(N=C(N)NC23CC4CC(CC(C4)C2)C3)c(C)c1`, 7 nM.
With `NC(=NC12CC3CC(CC(C3)C1)C2)Nc1cccc(I)c1` the figure was 8 nM.
With `COc1ccc(NC(N)=NC23CC4CC(CC(C4)C2)C3)cc1` the figure was 10 nM.
As for `NC(=Nc1ccccc1I)NC12CC3CC(CC(C3)C1)C2`, the concentration for half-maximal inhibition (IC50) was determined as 6.2 nM.

The values above are taken from BindingDB's records for doi:10.1021/jm00110a017 (Institutions, 1991).
